Key:
melanoma cells = test: Senescence assay (β-galactosidase staining) and arborization; assay type: cell-based, mouse
Description: Senescence was assessed with the Senescence Cells Histochemical Staining Kit (Sigma).
During the first 2-3 weeks of incubating melanoma cells in 2% methyl sulfone, replacement of the 2% methyl sulfone medium with medium without drug reversed the phenotypes described above. Re-adding 2% methyl sulfone to the cells re-induced the non-malignant phenotypes. This cycle of reversal occurred until the cells were incubated with 2% methyl sulfone for more than three weeks. […] As a further test, we detached senescent cells from the culture dish by trypsinization and replated the cells in medium without methyl sulfone.
Mature melanocytes assume a morphology that is similar to neuronal cells by having a small area of cytoplasm surrounding the nucleus and long extensions called arbors. The primary function of melanocytes is to produce melanin and package the melanin in vesicles called melanosomes. Melanosomes are then transported to the tips of melanocytes arbors. These tips are phagocytized by keratinocytes, cells that sit near the skin's surface, and the newly acquired melanosomes form an umbrella-like shield around the nuclei of keratinocytes to protect these cells' DNA from UV-inducing mutations.

[1] = test system: E-cadherin, β-catenin, N-cadherin and vimentin in melanoma cells; test: Immunofluorescence of E-cadherin, β-catenin, N-cadherin and vimentin (ETM transition); assay type: cell-based, mouse; settings: 2% methyl sulfone, 1 week
Description: Cells were plated onto 12 mm coverslips. When cells grew to 60 to 70% confluence, 2% methyl sulfone was added to half the coverslips and normal medium to other half. […] PBS for 30 seconds and fixed in 37° C. 4% paraformaldehyde for 10 minutes. Cells were washed in PBS for 5 minutes and incubated in 1% Triton X-100/PBS for 5 minutes. To block nonspecific sites, chicken serum was diluted 1/20 in PBS and added to cells for 30 minutes. Cells were washed 3 times in 0.1% Triton X-100/PBS, 3 minutes each.
Rabbit anti-E-cadherin antibody (Santa Cruz Biotech, Calif.) was diluted 1/100 in 5% BSA/PBS and added to the cells on coverslips for 2 hours. Cells were washed 5 times in 0.1% Triton X-100/PBS, 3 minutes each. Secondary antibody, Alexa Fluor 488 chicken anti-rabbit was diluted 1/200 in 5% BSA/PBS and added to coverslips for one hour in the dark. Cells were washed five times in 0.1% Triton X-100/PBS, three minutes each. Cells were washed in PBS for one minute and placed in Hoechst (1 mg/ml), diluted 1/1000, for 5 minutes. Cells were washed in PBS for one minute. SlowFade was added to slides, coverslips were placed face down and sealed with nail polish. […]

[2] = test system: B-cells from healthy volunteers; test: Apoptosis of normal B-cells by Flow Cytometry; assay type: cell-based, human; settings: 10% methyl sulfone, 20 hours
Description: Blood was drawn from healthy volunteers and white blood cells (e.g., lymphocytes, neutrophils) were enriched using Ficoll-Plaque. Cells were incubated in Petri dishes containing MEM with 7% fetal calf serum in a CO2 (5%) incubator at 37° C.; Methyl sulfone was present at concentrations of 0, 3, 6, or 10%. After 20 hours, cells were incubated with antibodies specific to T-lymphocytes (CD3 and CD4 T-cells), B-lymphocytes (B-cells) and neutrophils, and the percent of apoptotic cells was determined by Flow Cytometry. This is a technique that identifies specific cell types (e.g., CD3 T-cells, CD4 T-cells, B-cells, neutrophils) within a mixed population of blood cells, and then determines whether the cells are alive or apoptotic.
After 20 hours, cells were incubated with fluorescent antibodies to identify T-cells, B-cells and neutrophils, and then processed by Flow Cytometry (FIG. 15).

Substance: methyl sulfone
- morphology of senescent melanoma cells (arborization) (melanoma cells; 2% methyl sulfone): took on the morphology of mature melanocytes
- survival of arborized cells in culture (melanoma cells; 2% methyl sulfone): at least two months
- melanoma cells senescent (β-galactosidase activity) (melanoma cells; 2% methyl sulfone for more than three weeks): greater than 95%
- senescence after replacing drug medium with control medium (melanoma cells; senescent cells, 2% methyl sulfone removed): remained senescent
- distribution of E-cadherin, β-catenin, N-cadherin and vimentin vs untreated [1]: no significant differences
- effect on B-cells [2]: unharmed

From patent US10363229B2, “Methods and compositions for the treatment of cancer” (priority 2009, dated 2019)
